# Reference: article PMC12737022, “Evaluations of Sex Differences in Dosimetry in Rats Following Perfluorohexanesulfonamide (PFHxSA) Oral Exposure” (Toxics, 2025)
# “And” between values parts separate entries of the source, which are not always exact repeats. Identical values can stand only once. Like-named read-outs stand apart in the source and are kept apart here.
# Assay: Liver dosimetry of PFHxSA and PFHxS by targeted LC/MS/MS
# Format: in vivo, rat
# Conditions: for concentration at 24 h: Sprague Dawley (Crl:CD(SD)), rat, liver, oral
# Excerpt: The plasma and liver samples for this investigation were provided by Mutlu et al.. The study design, including detailed descriptions of animal handling, procedures for dosing, clinical observations, termination, and collection of tissues, is reported elsewhere and is consistent with the ARRIVE guidelines. Briefly, male and female Sprague Dawley (SD) rats (Crl:CD(SD)) (n = 48/sex, 96 total) were purchased from Charles River Laboratory (Raleigh, NC, USA) and allowed to acclimate for ≥5 days before initial dosing. Rats were 8–10 weeks old at the time of exposure. PFHxSA dosing solutions in corn oil were prepared on Day 0 and used over the course of the study. Rats of both sexes (n = 5/sex, dose, and time point, plus eight vehicle controls per sex) were dosed by oral gavage (5 mL/kg body weight) once daily for five days. […] The formulation concentrations decreased from 100 mg/kg/day at half-log10 intervals until the lowest dose level, which was a full log10 interval below the next higher dose, giving eight dose levels (0.01 to 100 mg/kg/day or 0.025 µmol/kg/day to 250 µmol/kg/day) in addition to vehicle controls. Doses were administered in randomized order within ± 1 h on each day of dosing. […] Rats were euthanized 24 h after the last dose. Blood was collected via cardiac puncture with tripotassium ethylene diamine tetraacetic acid (K3EDTA) as an anti-coagulant and centrifuged to collect cell-free plasma. Liver was collected and flash-frozen in liquid nitrogen. Liver, plasma, and dosing formulation samples were frozen at the USEPA Center for Computational Toxicology and Exposure (CCTE), Durham, NC, USA. Tissue samples (plasma and liver, n = 96 each) were stored at ≤−70 °C prior to extraction; dosing formulation samples (n = 9) were stored at −20 °C.
# Detailed information on solvents and standards used for targeted LC/MS/MS of PFHxSA and PFHxS can be found in SI Text S1 and SI Table S1. Plasma and liver preparations were modified from Conley et al.. Briefly, aliquots of plasma (25 µL) and liver (~10 mg) were spiked with PFOSA as an internal standard, as no isotope-labeled PFHxSA was available. Sample batches included up to 96 samples along with an MB, CCV, and LCS for QC. Commercial plasma (mixed-sex SD rat plasma) and liver (mixed-sex SD rat) were obtained from BioIVT (Westbury, NY, USA). Cold acetonitrile (ACN) with 0.1 M formic acid was used to precipitate proteins. Liver and plasma samples were prepared similarly, except that the livers were homogenized after solvent addition. Plasma samples were vortexed to mix before being chilled at −20 °C, after which samples were centrifuged at 5 °C and 10,000× g. Liver samples were chilled at −80 °C, then homogenized using an Omni International (Kennesaw, GA, USA) Bead Ruptor 24. Liver homogenates were centrifuged at 26,000× g and 5 °C. Supernatants from the extraction of both matrices were removed and stored at −20 °C until analysis. Refer to SI Text S4 for additional experimental details and information on calibration and QC parameters for quantitation of PFHxSA.
# Targeted LC/MS/MS of PFHxSA was performed on a Sciex 4000 QTRAP LC/MS/MS system operated in negative ESI mode with MRM scanning. A Restek (Bellefonte, PA, USA) Raptor Polar X (100 mm × 2 mm, 2.7 µm) column was used for liquid chromatography. Isocratic elution occurred over 10 min with a 30:70 ratio of mobile phase A (10 mM ammonium formate): mobile phase B (60:40 ACN: methanol). Both mobile phases included 0.05% formic acid. The LOQs for PFHxSA were 0.100 µM in plasma and 0.351 µM in liver. Additional details of the instrument method parameters for targeted analysis of PFHxSA are provided in SI Table S5. The MRM transitions for the PFHxSA method are provided in SI Table S6. […]
smiles,measurement,setting,value
"NS(=O)(=O)C(F)(F)C(F)(F)C(F)(F)C(F)(F)C(F)(F)C(F)(F)F [PFHxSA, Perfluorohexanesulfonamide]",PFHxSA Male Liver Conc. (wet weight),"PFHxSA 0.1 mg/kg/day oral 5 days, male, individual rats",0.191 ng/mg and 0.0842 ng/mg and 0.479 µM and 0.211 µM and 0.156 ng/mg and 0.391 µM and 0.746 µM and 0.503 µM and 0.298 ng/mg and 0.201 ng/mg
same,PFHxSA Female Liver Conc. (wet weight),"PFHxSA 0.3 mg/kg/day oral 5 days, female, individual rats",1.47 µM and 1.96 µM and 1.26 µM and 1.74 µM
same,PFHxSA Male Liver Conc. (wet weight),"PFHxSA 0.3 mg/kg/day oral 5 days, male, individual rats",0.462 ng/mg and 0.399 ng/mg and 1.26 µM and 0.604 µM and 1.30 µM and 1.16 µM and 1.00 µM and 0.503 ng/mg
same,PFHxSA Female Liver Conc. (wet weight),"PFHxSA 1 mg/kg/day oral 5 days, female, individual rats",2.91 µM and 2.52 µM and 4.17 µM and 4.76 µM and 6.64 µM
same,PFHxSA Male Liver Conc. (wet weight),"PFHxSA 1 mg/kg/day oral 5 days, male, individual rats",0.846 ng/mg and 1.00 ng/mg and 1.09 ng/mg and 1.18 ng/mg and 2.12 µM and 2.51 µM and 2.73 µM and 2.97 µM
same,PFHxSA Female Liver Conc. (wet weight),"PFHxSA 3 mg/kg/day oral 5 days, female, individual rats",7.94 µM and 4.86 µM and 6.40 µM and 9.55 µM and 10.8 µM
same,PFHxSA Male Liver Conc. (wet weight),"PFHxSA 3 mg/kg/day oral 5 days, male, individual rats",1.92 ng/mg and 1.86 ng/mg and 1.63 ng/mg and 2.14 ng/mg and 4.81 µM and 4.67 µM and 4.08 µM and 5.36 µM
same,PFHxSA Female Liver Conc. (wet weight),"PFHxSA 10 mg/kg/day oral 5 days, female, individual rats",6.97 µM and 8.65 µM and 7.58 µM and 9.86 µM
same,PFHxSA Male Liver Conc. (wet weight),"PFHxSA 10 mg/kg/day oral 5 days, male, individual rats",5.65 ng/mg and 3.24 ng/mg and 4.53 ng/mg and 4.26 ng/mg and 14.2 µM and 8.13 µM and 11.4 µM and 10.7 µM
same,PFHxSA Female Liver Conc. (wet weight),"PFHxSA 30 mg/kg/day oral 5 days, female, individual rats",15.8 ng/mg and 7.72 ng/mg and 10.1 ng/mg and 8.88 ng/mg and 23.9 µM and 39.6 µM and 19.4 µM and 25.2 µM and 22.3 µM
same,PFHxSA Male Liver Conc. (wet weight),"PFHxSA 30 mg/kg/day oral 5 days, male, individual rats",4.86 ng/mg and 3.36 ng/mg and 4.47 ng/mg and 6.25 ng/mg and 12.2 µM and 8.43 µM and 11.2 µM and 15.7 µM
same,PFHxSA Female Liver Conc. (wet weight),"PFHxSA 100 mg/kg/day oral 5 days, female, individual rats",20.7 ng/mg and 12.3 ng/mg and 37.7 ng/mg and 20.9 ng/mg and 16.1 ng/mg and 52.0 µM and 30.8 µM and 94.6 µM and 52.3 µM and 40.3 µM
same,PFHxSA Male Liver Conc. (wet weight),"PFHxSA 100 mg/kg/day oral 5 days, male, individual rats",14.9 ng/mg and 19.0 ng/mg and 6.87 ng/mg and 4.89 ng/mg and 5.61 ng/mg and 37.4 µM and 47.6 µM and 17.2 µM and 12.3 µM
same,concentration at 24 h,"female, 0.1 mg/kg/day, PFHxSA 0.1 mg/kg/day oral 5 days, female, individual rats, read-out: PFHxSA Female Liver Conc. (wet weight)",436 nM and 174 ng/g
same,concentration at 24 h,"female, 0.3 mg/kg/day, PFHxSA 0.3 mg/kg/day oral 5 days, female rats, mean ± SD, read-out: PFHxSA Female Liver Conc.",1.69 ± 0.32 µM
same,concentration at 24 h,"female, 0.3 mg/kg/day, PFHxSA 0.3 mg/kg/day oral 5 days, female, individual rats, read-out: PFHxSA Female Liver Conc. (wet weight)",2.03 µM and 811 ng/g
same,concentration at 24 h,"female, 1 mg/kg/day, PFHxSA 1 mg/kg/day oral 5 days, female rats, mean ± SD, read-out: PFHxSA Female Liver Conc.",4.2 ± 1.6 µM
same,concentration at 24 h,"female, 3 mg/kg/day, PFHxSA 3 mg/kg/day oral 5 days, female rats, mean ± SD, read-out: PFHxSA Female Liver Conc.",7.91 ± 2.4 µM
same,concentration at 24 h,"female, 10 mg/kg/day, PFHxSA 10 mg/kg/day oral 5 days, female rats, mean ± SD, read-out: PFHxSA Female Liver Conc.",8.41 ± 1.1 µM
same,concentration at 24 h,"female, 10 mg/kg/day, PFHxSA 10 mg/kg/day oral 5 days, female, individual rats, read-out: PFHxSA Female Liver Conc. (wet weight)",8.98 µM and 3580 ng/g
same,concentration at 24 h,"female, 30 mg/kg/day, PFHxSA 30 mg/kg/day oral 5 days, female rats, mean ± SD, read-out: PFHxSA Female Liver Conc.",26.1 ± 7.9 µM
same,concentration at 24 h,"male, 0.3 mg/kg/day, PFHxSA 0.3 mg/kg/day oral 5 days, male rats, mean ± SD, read-out: PFHxSA Male Liver Conc.",1.06 ± 0.28 µM
same,concentration at 24 h,"male, 1 mg/kg/day, PFHxSA 1 mg/kg/day oral 5 days, male rats, mean ± SD, read-out: PFHxSA Male Liver Conc.",2.48 ± 0.39 µM
same,concentration at 24 h,"male, 1 mg/kg/day, PFHxSA 1 mg/kg/day oral 5 days, male, individual rats, read-out: PFHxSA Male Liver Conc. (wet weight)",821 ng/g and 2.06 µM
same,concentration at 24 h,"male, 3 mg/kg/day, PFHxSA 3 mg/kg/day oral 5 days, male rats, mean ± SD, read-out: PFHxSA Male Liver Conc.",4.67 ± 0.47 µM
same,concentration at 24 h,"male, 3 mg/kg/day, PFHxSA 3 mg/kg/day oral 5 days, male, individual rats, read-out: PFHxSA Male Liver Conc. (wet weight)",1780 ng/g and 4.45 µM
same,concentration at 24 h,"male, 10 mg/kg/day, PFHxSA 10 mg/kg/day oral 5 days, male rats, mean ± SD, read-out: PFHxSA Male Liver Conc.",10.6 ± 2.5 µM
same,concentration at 24 h,"male, 10 mg/kg/day, PFHxSA 10 mg/kg/day oral 5 days, male, individual rats, read-out: PFHxSA Male Liver Conc. (wet weight)",3370 ng/g and 8.44 µM
same,concentration at 24 h,"male, 30 mg/kg/day, PFHxSA 30 mg/kg/day oral 5 days, male rats, mean ± SD, read-out: PFHxSA Male Liver Conc.",11.6 ± 2.6 µM
same,concentration at 24 h,"male, 30 mg/kg/day, PFHxSA 30 mg/kg/day oral 5 days, male, individual rats, read-out: PFHxSA Male Liver Conc. (wet weight)",4320 ng/g and 10.8 µM
